Results reported in US20240299385A1 (ReWind Therapeutics NV, priority 2021, published 2024).

Target: T1, human GPR17 receptor (Homo sapiens, UniProt Q13304)
T1 construct: host or cells: HEK-293
Experiment: Calcium mobilization functional assay (Fluo-8, FLIPR TETRA) in HEK-293 hGPR17 (Gα-q assay)
Format: cell-based
Conditions: antagonism of MDL29,951 (~EC80) induced Ca2+ signal; cell line (HEK-293 hGPR17 or HEK-293 Suchi5 hGPR17) not given
How it was run: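 Fluo-8-loaded HEK-293 hGPR17 cells (60 min dye loading, room temperature) were preincubated with compound for twenty minutes, then challenged with agonist MDL29,951 at ~EC80, 500 nM. Intracellular calcium release via Gα-q was recorded as FLIPR fluorescence for a further 2 minutes; compounds tested in duplicate.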

T1 sequence (Q13304 whole entry): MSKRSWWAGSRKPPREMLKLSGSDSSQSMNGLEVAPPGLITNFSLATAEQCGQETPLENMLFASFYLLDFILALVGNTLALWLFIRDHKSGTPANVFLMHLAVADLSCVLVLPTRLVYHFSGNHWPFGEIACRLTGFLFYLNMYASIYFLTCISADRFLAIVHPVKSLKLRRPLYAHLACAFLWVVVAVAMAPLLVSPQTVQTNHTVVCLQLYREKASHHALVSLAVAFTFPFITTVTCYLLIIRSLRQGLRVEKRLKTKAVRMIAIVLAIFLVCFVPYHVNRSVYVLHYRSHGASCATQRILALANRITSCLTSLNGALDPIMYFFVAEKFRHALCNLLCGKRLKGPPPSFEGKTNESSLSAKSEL

IC50 [µM] | Structure (SMILES)
0.5 to 5 | N#Cc1ccc(NS(=O)(=O)c2c[nH]c(-c3cccc4ccccc34)c2)c(F)c1 [Cpd 382, N-(4-cyano-2-fluorophenyl)-5-naphthalen-1-yl-1H-pyrrole-3-sulfonamide]
5 to 50 | Cc1c(C(F)(F)F)ccc(NS(=O)(=O)c2c[nH]c(-c3ccccn3)c2)c1F [Cpd 383, N-[2-fluoro-3-methyl-4-(trifluoromethyl)phenyl]-5-pyridin-2-yl-1H-pyrrole-3-sulfonamide]
0.5 to 5 | Cc1ccccc1Cc1c[nH]cc1S(=O)(=O)Nc1ccc(C#N)cc1F [Cpd 384, N-(4-cyano-2-fluorophenyl)-4-[(2-methylphenyl)methyl]-1H-pyrrole-3-sulfonamide]
5 to 50 | Cc1ccc(Cc2c[nH]cc2S(=O)(=O)Nc2ccc(C#N)cc2F)cc1 [Cpd 385, N-(4-cyano-2-fluorophenyl)-4-[(4-methylphenyl)methyl]-1H-pyrrole-3-sulfonamide]
5 to 50 | N#Cc1ccc(NS(=O)(=O)c2c[nH]cc2Cc2ccccc2C(F)(F)F)c(F)c1 [Cpd 386, N-(4-cyano-2-fluorophenyl)-4-[[2-(trifluoromethyl)phenyl]methyl]-1H-pyrrole-3-sulfonamide]
5 to 50 | N#Cc1ccc(NS(=O)(=O)c2c[nH]cc2Cc2ccc(C(F)(F)F)cc2)c(F)c1 [Cpd 387, N-(4-cyano-2-fluorophenyl)-4-[[4-(trifluoromethyl)phenyl]methyl]-1H-pyrrole-3-sulfonamide]
0.5 to 5 | N#Cc1ccc(NS(=O)(=O)c2c[nH]cc2Cc2ccccc2OC(F)(F)F)c(F)c1 [Cpd 388, N-(4-cyano-2-fluorophenyl)-4-[[2-(trifluoromethoxy)phenyl]methyl]-1H-pyrrole-3-sulfonamide]
5 to 50 | N#Cc1ccc(NS(=O)(=O)c2c[nH]cc2Cc2ccc(OC(F)(F)F)cc2)c(F)c1 [Cpd 389, N-(4-cyano-2-fluorophenyl)-4-[[4-(trifluoromethoxy)phenyl]methyl]-1H-pyrrole-3-sulfonamide]
< 0.5 | N#Cc1ccc(NS(=O)(=O)c2c[nH]cc2Cc2cccc(Br)c2)c(F)c1 [Cpd 391, 4-[(3-bromophenyl)methyl]-N-(4-cyano-2-fluorophenyl)-1H-pyrrole-3-sulfonamide]
< 0.5 | N#Cc1ccc(NS(=O)(=O)c2c[nH]cc2Cc2ccsc2)c(F)c1 [Cpd 392, N-(4-cyano-2-fluorophenyl)-4-(thiophen-3-ylmethyl)-1H-pyrrole-3-sulfonamide]
< 0.5 | O=S(=O)(Nc1cc(F)c(C(F)(F)F)cc1F)c1c[nH]c(-c2cc(F)ccc2F)c1 [Cpd 393, 5-(2,5-difluorophenyl)-N-[2,5-difluoro-4-(trifluoromethyl)phenyl]-1H-pyrrole-3-sulfonamide]
< 0.5 | COc1c(Cl)cccc1-c1cc(S(=O)(=O)Nc2ccc(C#N)cc2F)c[nH]1 [Cpd 394, 5-(3-chloro-2-methoxyphenyl)-N-(4-cyano-2-fluorophenyl)-1H-pyrrole-3-sulfonamide]
< 0.5 | N#Cc1ccc(NS(=O)(=O)c2c[nH]c(-c3nccc4ccccc34)c2)c(F)c1 [Cpd 396, N-(4-cyano-2-fluorophenyl)-5-isoquinolin-1-yl-1H-pyrrole-3-sulfonamide]
0.5 to 5 | N#Cc1ccc(NS(=O)(=O)c2c[nH]c(-c3ccccc3OC3CC3)c2)c(F)c1 [Cpd 397, N-(4-cyano-2-fluorophenyl)-5-(2-cyclopropyloxyphenyl)-1H-pyrrole-3-sulfonamide]
0.5 to 5 | N#Cc1ccc(NS(=O)(=O)c2c[nH]cc2-c2cccs2)c(F)c1 [Cpd 398, N-(4-cyano-2-fluorophenyl)-4-thiophen-2-yl-1H-pyrrole-3-sulfonamide]
0.5 to 5 | O=S(=O)(Nc1cc(OC(F)F)c(Cl)cc1F)c1c[nH]c(-c2ccccc2)c1 [Cpd 399, N-[4-chloro-5-(difluoromethoxy)-2-fluorophenyl]-5-phenyl-1H-pyrrole-3-sulfonamide]

IC50 [µM] | Structure (SMILES)
0.5 to 5 | N#Cc1ccc(NS(=O)(=O)c2c[nH]cc2-c2ccsc2)c(F)c1 [Cpd 400, N-(4-cyano-2-fluorophenyl)-4-thiophen-3-yl-1H-pyrrole-3-sulfonamide]
< 0.5 | Cc1cc(-c2c[nH]cc2S(=O)(=O)Nc2ccc(C#N)cc2F)cs1 [Cpd 401, N-(4-cyano-2-fluorophenyl)-4-(5-methylthiophen-3-yl)-1H-pyrrole-3-sulfonamide]
5 to 50 | N#Cc1ccc(NS(=O)(=O)c2c[nH]cc2-c2cccc(C3CC3)c2)c(F)c1 [Cpd 402, N-(4-cyano-2-fluorophenyl)-4-(3-cyclopropylphenyl)-1H-pyrrole-3-sulfonamide]
< 0.5 | O=S(=O)(Nc1cc(F)c(OC(F)F)cc1F)c1c[nH]c(-c2nccs2)c1 [Cpd 403, N-[4-(difluoromethoxy)-2,5-difluorophenyl]-5-(1,3-thiazol-2-yl)-1H-pyrrole-3-sulfonamide]
< 0.5 | O=S(=O)(Nc1cc(F)c(OC(F)F)cc1F)c1c[nH]c(-c2ncccc2F)c1 [Cpd 404, N-[4-(difluoromethoxy)-2,5-difluorophenyl]-5-(3-fluoropyridin-2-yl)-1H-pyrrole-3-sulfonamide]
< 0.5 | N#Cc1cc(F)c(NS(=O)(=O)c2c[nH]cc2Cc2ccccc2)cc1F [Cpd 407, 4-benzyl-N-(4-cyano-2,5-difluorophenyl)-1H-pyrrole-3-sulfonamide]
0.5 to 5 | O=S(=O)(Nc1ncc(OC(F)F)cc1F)c1c[nH]c(-c2ccccc2)c1 [Cpd 408, N-[5-(difluoromethoxy)-3-fluoropyridin-2-yl]-5-phenyl-1H-pyrrole-3-sulfonamide]
< 0.5 | O=S(=O)(Nc1cc(F)c(OC(F)F)cc1F)c1c[nH]c(-c2ccccc2F)c1 [Cpd 409, N-[4-(difluoromethoxy)-2,5-difluorophenyl]-5-(2-fluorophenyl)-1H-pyrrole-3-sulfonamide]
0.5 to 5 | O=S(=O)(Nc1cc(F)c(OC(F)F)cc1F)c1c[nH]c(-c2cc(Cl)ccc2F)c1 [Cpd 410, 5-(5-chloro-2-fluorophenyl)-N-[4-(difluoromethoxy)-2,5-difluorophenyl]-1H-pyrrole-3-sulfonamide]
0.5 to 5 | O=S(=O)(Nc1cc(F)c(OC(F)F)cc1F)c1c[nH]c(-c2ccc(F)cc2)c1 [Cpd 411, N-[4-(difluoromethoxy)-2,5-difluorophenyl]-5-(4-fluorophenyl)-1H-pyrrole-3-sulfonamide]
0.5 to 5 | O=S(=O)(Nc1cc(F)c(OC(F)F)cc1F)c1c[nH]c(-c2ccc(F)cc2F)c1 [Cpd 412, N-[4-(difluoromethoxy)-2,5-difluorophenyl]-5-(2,4-difluorophenyl)-1H-pyrrole-3-sulfonamide]
< 0.5 | O=S(=O)(Nc1cc(F)c(Br)cc1F)c1c[nH]c(-c2ccccc2F)c1 [Cpd 413, N-(4-bromo-2,5-difluorophenyl)-5-(2-fluorophenyl)-1H-pyrrole-3-sulfonamide]
0.5 to 5 | O=S(=O)(Nc1cc(F)c(Br)cc1F)c1c[nH]c(-c2cc(Cl)ccc2F)c1 [Cpd 414, N-(4-bromo-2,5-difluorophenyl)-5-(5-chloro-2-fluorophenyl)-1H-pyrrole-3-sulfonamide]
0.5 to 5 | N#CCOc1cc(F)c(NS(=O)(=O)c2c[nH]cc2Cc2ccccc2)cc1F [Cpd 415, 4-benzyl-N-[4-(cyanomethoxy)-2,5-difluorophenyl]-1H-pyrrole-3-sulfonamide]
< 0.5 | N#Cc1cc(F)c(NS(=O)(=O)c2c[nH]cc2Cc2cccs2)cc1F [Cpd 416, N-(4-cyano-2,5-difluorophenyl)-4-(thiophen-2-ylmethyl)-1H-pyrrole-3-sulfonamide]
